PubChem BioAssay AID179 (DTP/NCI, 2004)
The source made the active and inactive calls.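 The calls were made as follows: active = compounds giving half or more protection of infected cells from virus-caused growth loss, again on retest; inactive = the rest.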

Test system: CEM cells HIV-1 protection, formazan growth assay
Assay: NCI AIDS Antiviral Assay
Conditions: for IC50: measured here: growth of uninfected CEM cells
In short: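 Protection of CEM cells against HIV-1 measured as cell growth via soluble formazan read-out, with five concentrations tested on both infected and uninfected cells; failure to protect may reflect toxicity.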

SMILES	EC50 [µM]	IC50 [µM]	outcome
O=C1c2ccccc2CC12Cc1ccccc1C2	> 200	69.2	
CCCCN(O)[C@@H]1CC(n2cc(C)c(=O)[nH]c2=O)OC1CO[Si](C)(C)C(C)(C)C (stereo not given in full)	> 200	83.2	
CN(C)CCOc1cccc(OCCN(C)C)n1	> 200	> 200	
O=C(C(=O)c1ccc(Cc2ccc(C(=O)C(=O)c3ccccc3)cc2)cc1)c1ccccc1	> 575	> 575	
Cc1ccc([N+](=O)[O-])cc1NC1=NCCO1	> 200	186	
O=C(C(/C=N/C(=S)NCc1ccccc1)=C(/O)c1ccccc1)c1ccccc1	> 200	30.9	
CCOc1ccc(NC(=O)/C(=C\c2ccc(C)cc2)C(C)=O)cc1			inactive
CN(C)C=C1C(Cl)=C(C=O)CC(C=O)=C1Cl			inactive
COc1cc2c(cc1OC)C(Cc1ccc(O)cc1)N(C)CC2 (stereo not given)			inactive
COC(=O)C(=O)C(/C=N/C(=S)Nc1ccc(S(=O)(=O)Nc2nccs2)cc1)=C(\O)c1c(C)[nH]c2ccccc12	> 200	72.4	
CSC(=Nc1cc2ccccc2c2ccccc12)NC#N	> 34.7	26.9	
Cn1cc(NC(=O)c2cc(NC(=O)c3cc(NC(=O)c4ccc(C(=O)Nc5cn(C)c(C(=O)Nc6cn(C)c(C(=O)Nc7cn(C)c(C(=O)NCCC(=N)N)n7)n6)n5)cc4)cn3C)cn2C)cc1C(=O)NCCC(=N)N	> 33.1	6.61	
O=C(O)C(NCc1ccccc1)C(NCc1ccccc1)C(=O)O (stereo not given)	> 200	> 200	
ClC1=NSC(Cl)=NS1	> 53.7	> 53.7	
CN(C)CCCC12CCCCC1=Nc1ccccc12 (stereo not given)	> 200	7.76	
CC(N)S(=O)(=O)O (stereo not given)	> 200	158	
C/C(=N\NC(N)=S)c1sc(-n2nc(-c3ccccc3)cc2-c2ccccc2)nc1C	> 16.6	> 16.6	
CC(=O)OC[C@H]1O[C@@H](O[C@H]2[C@H](OC(C)=O)C=CO[C@@H]2COC(C)=O)C(OC(C)=O)[C@H]2OC(C)(C)O[C@H]21 (stereo not given in full)	> 200	69.2	
Clc1ccc(CSc2cnnc3ccccc23)cc1	> 61.7	> 61.7	
O=c1cc(N2CCOCC2)n2ccccc2n1	> 200	> 200	
Cc1cccc(NC(=O)c2cc3cc(N=Nc4ccc(Br)cc4)ccc3oc2=O)c1			inactive
CNC(=O)Oc1cccc(CN(C)C)c1	> 200	> 200	

SMILES	EC50 [µM]	IC50 [µM]	outcome
O=C(N/C(=C\c1ccc(Oc2ccc(Cl)c(Cl)c2)cc1)c1nc2ccccc2[nH]1)c1ccccc1			inactive
O=C(Cc1ccccc1)NN1C(=O)C(Cl)C1c1cc(Br)cc(Br)c1O (stereo not given)	> 20.4	11.5	
CC(=O)Oc1ccc(/C=C/C(=O)OCCOC(=O)/C=C/c2ccc(OC(C)=O)c(OC(C)=O)c2)cc1OC(C)=O	> 20	8.71	
C[C@]12CC[C@H](CC=C(c3cc(Cl)c(O)c(C(=O)O)c3)c3cc(Cl)c(O)c(C(=O)O)c3)C[C@@H]1CC[C@@H]1[C@@H]2CC[C@]2(C)[C@@H](CC=C(c3cc(Cl)c(O)c(C(=O)O)c3)c3cc(Cl)c(O)c(C(=O)O)c3)CC[C@@H]12	28.8	45.7	
Clc1nc(Cl)c2sc(=[Se])sc2n1	> 200	8.51	
OC(NN=C1CCCC1)(C(F)(F)Cl)C(F)(F)Cl	> 200	170	
CC(CN(C)C)OC(=O)c1cc2ccccc2n1Cc1ccccc1 (stereo not given)	> 200	87.1	
COC(=O)/C(=N\Nc1nc(=S)[nH]n1N)C(C#N)c1ccc(Cl)cc1 (stereo not given)	> 37.2	> 37.2	
CN(c1ccc(C(=O)c2ccc(N(C)S(C)(=O)=O)cc2)cc1)S(C)(=O)=O	> 25.1	> 25.1	
S=P(NC1CCCCC1)(NC1CCCCC1)NC1CCCCC1	> 200	> 200	
Cc1nc(N)c(N2CCN(CN)CC2)c(=O)[nH]1	> 200	> 200	
CCOC(=O)c1c(C)[nH]c(=S)c(C#N)c1-c1cccc2ccccc12	> 200	28.8	
Cn1cc(NC(=O)Nc2cc(C(=O)Nc3cc(C(=O)Nc4cc(S(=O)(=O)O)c5cc(S(=O)(=O)O)cc(S(=O)(=O)O)c5c4)n(C)c3)n(C)c2)cc1C(=O)Nc1cc(C(=O)Nc2cc(S(=O)(=O)O)c3cc(S(=O)(=O)O)cc(S(=O)(=O)O)c3c2)n(C)c1	4.68	224	
CCOC(=O)c1[nH]cc(C)c1-c1ccn(-c2ccccc2)c1	> 200	45.7	
O=C(O)Cn1[se]c2ccccc2c1=O	46.8	120	
Cc1ccc(N=C(N)NC#N)cc1	> 1450	> 1450	
c1ccc(SC2(Sc3ccccc3)CCCC2)cc1			inactive
O=C(O)C(C(C(=O)O)P(=O)(O)O)P(=O)(O)O (stereo not given)	> 200	> 200	
CC(=O)/C(=C/c1ccc(N(C)C)cc1)c1ccccc1	> 19.5	> 19.5	
OC(COc1ccc2ccccc2c1)COc1ccc2ccccc2c1	> 200	138	
CCCCN(CCCC)c1cc(=O)nc2ccccn12	> 200	> 200	
COc1ccc([C@H]2c3cc4c(cc3OC(O)(CO)[C@H]2C(=O)O)OCO4)c(OC)c1 (stereo not given in full) (tested in a mixture with another compound)			inactive

SMILES	EC50 [µM]	IC50 [µM]	outcome
Nc1ccc2nc(-c3ccccn3)c(-c3ccccn3)nc2c1	123	> 200	
CS(=O)(=O)c1ccc(C(=O)O[C@@H]2C(=O)N3CC[C@H]4OC(O)[C@@H]2[C@H]43)cc1 (stereo not given in full)	> 200	> 200	
O=C1c2cc([N+](=O)[O-])cnc2S(=O)(=O)N1c1ccc(Oc2ccccc2)cc1	> 200	105	
COc1ccc(/C=N/Nc2nnc3c4ccccc4n(C)c3n2)cc1	> 200	> 200	
O=C1CC(=O)NC(=NN2C(=O)/C(=C/c3ccc(Cl)c(Cl)c3)N=C2c2ccccc2)N1	> 200	21.9	
O=C(NCCCl)N1CCC(CN=c2cc3n(-c4ccc(Cl)cc4)c4ccccc4nc-3cc2Nc2ccc(Cl)cc2)CC1	> 100	17	
NC(CSCc1ccccc1)C(=O)O (stereo not given)	> 224	> 224	
COc1ccc(SCc2ccc(C(=O)O)cc2[N+](=O)[O-])cc1	> 295	162	
Nc1nn2cc3c(nc2c1N=Nc1ccc(Cl)cc1)CCC3	> 151	> 100	
COC1/C=C\C=C(/C)C(=O)NC2=CC(=O)C(NC3CC3)=C(CC(C)CC(OC)C(O)C(C)/C=C(/C)C1OC(N)=O)C2=O (stereo not given)			inactive
O=C1CS/C(=N/N=C/c2nc3ccccc3c(=O)n2-c2ccc(Cl)cc2)N1c1ccccc1	> 38	> 38	
Nc1ccc(S(=O)(=O)Nc2nccs2)cc1N=Nc1ccccc1[N+](=O)[O-]	> 200	> 200	
CCOC(=O)Cc1cc(=O)[nH]n(-c2ccccc2)c1=O			inactive
CCc1n[nH]c(=O)n1N1C(=O)C2CCCCC2C1=O (stereo not given)	> 200	> 200	
C=CCSCCCC#Cc1ccccc1C(=O)OC	> 200	151	
CCNC(=O)Cc1nc2c(=O)[nH]cnc2n1C1OC(CO)C(O)C1O (stereo not given)	> 200	> 200	
CC[N+](CC)=c1ccc2nc3c(cc(N)c4ccccc43)oc-2c1	> 200	3.8	
CN(C)N=Nc1ccc(/C=C2/C=Cc3ccccc32)cc1	> 49	> 49	
CC1C(=O)C(C)C(c2ccccc2)NC1c1ccccc1 (stereo not given)	> 67.6	> 67.6	
NNC1=N/C(=C\c2ccco2)C(=O)N1	> 200	162	
Cc1nc(N)sc1C(=O)Nc1ncn[nH]1	> 200	117	
CON(C)c1nc(Cl)nc(Cl)n1	> 200	> 200	

SMILES	EC50 [µM]	IC50 [µM]	outcome
Clc1ccc(/C=N/Nc2nnc3c4ccccc4c4ncccc4c3n2)cc1	> 50.1	> 50.1	
Cc1ccccc1OP(=S)(Oc1ccccc1C)Oc1ccccc1C	> 200	35.5	
C/C=C(C)/C=C/CC(C)CCC=C(C)C (stereo not given)	> 200	85.1	
c1cc(-c2cnc(-c3ccc4c(c3)CCCO4)o2)ccn1	> 200	50.1	
CC1(C)C(C#N)C1C1=C(N2CCOCC2)[C@]2(C)C(OC(=O)c3ccccc3)CC[C@@H]2C1 (stereo not given in full)	> 50.1	38.9	
CCC(=S)N(C)O	> 20.9	0.174	
COc1ccc(C(=O)c2ccc(OC)c(S(=O)(=O)n3ccnc3)c2)cc1S(=O)(=O)n1ccnc1	> 35.5	32.4	
N#CC(c1ccccc1)[P+](c1ccccc1)(c1ccccc1)c1ccccc1 (stereo not given)	> 200	141	
COc1ccccc1C1c2cc3c(cc2OC(N2CCCC2)C1C)OCO3 (stereo not given)	> 200	16.2	
C[C@]12CC[C@H](O)CC1=CC[C@@H]1C2CC[C@]2(C)Nc3c(cnn3-c3ccccc3)CC12 (stereo not given in full)			inactive
O=C(CSc1nnc(Cc2ccccc2)o1)Nc1ccccc1	> 209	> 209	
Nc1nc(=S)[nH]c(N)c1N=O	85.1	120	
Cn1c(=N)c(C#N)c2n(c1=S)CCCCCCC2	> 200	97.7	
O=c1c(-c2ccccc2)c(SCCO)n(-c2ccccc2)c(=S)n1-c1ccccc1	> 200	> 200	
Cc1ccc(S(=O)(=O)N2CCNCCN(S(=O)(=O)c3ccc(C)cc3)CCNCC2)cc1	> 126	51.3	
O=C(/C=C/c1ccccc1)CC(=O)CCC(=O)Nc1ccc(Cl)cc1			inactive
O=C(O)CSc1cc(-c2ccc(Cl)cc2)s[s+]1	> 200	> 200	
CC1(C)CC2(C)CC1CC2O (stereo not given)	> 200	> 200	
Cc1nc2cc3c(cc2n2cccc12)oc1ccccc13	> 44.7	35.5	
Cc1nc(-c2cccnc2)sc1C(=O)/C=C/c1cccc([N+](=O)[O-])c1	> 74.1	> 74.1	
Nc1nccc2c1ncn2C1OC(CO)C(O)C1O (stereo not given)	> 933	30.2	
N=c1c2ccccc2nc2oc3ccccc3n12	> 200	> 200	
